Results: ChEMBL document CHEMBL6092220 (J Med Chem, 2024)
pIC50: −log10 of the molar value. Calls of active or inactive are those of the source. The calls are words filed in the database; no cut-off is given here.

Key:
[1] = Stability in dog plasma assessed as parent compound remaining at […]; assay type: ADME, cell-free, Canis lupus familiaris; settings: read-out: Stability
[2] = biological target: Signal transducer and activator of transcription 4 (Homo sapiens, UniProt Q14765); test: Binding affinity to STAT4 (unknown origin) by FP assay
[3] = Drug concentration in female CB17 SCID mouse plasma at 5 mg/kg, iv measured at 48 hrs by LC-MS/MS analysis; assay type: ADME, organism-based
[4] = biological target: T1, Protein cereblon/Signal transducer and activator of transcription 3 (Homo sapiens, UniProt P40763+Q96SW2); test: PROTAC activity at STAT3/CRBN in human MOLM16 cells assessed as reduction in STAT3 level at 64 nM incubated for 4 hrs by Western blot analysis; assay type: cell-based
[5] = Stability in mouse plasma assessed as parent compound remaining at […]; assay type: ADME, cell-free; settings: read-out: Stability
[6] = Cmax in ICR mouse at 5 mg/kg, iv; assay type: ADME, organism-based; settings: in vivo
[7] = biological target: T1, Protein cereblon/Signal transducer and activator of transcription 3; test: PROTAC activity at STAT3/CRBN in human Pfeiffer cells transfected with STAT3 K658R mutant assessed as reduction in STAT3 level at 64 nM incubated for 20 hrs by Western blot analysis; assay type: cell-based; set-up: scale not given: the % may be the effect or the level left
[8] = species: Homo sapiens; test: Binding affinity to STAT5 (unknown origin) assessed as maximum inhibition by FP assay relative to control
[9] = Apparent volume of distribution in ICR mouse at 5 mg/kg, iv; assay type: ADME, organism-based; settings: in vivo, read-out: Vz
[10] = biological target: Cytochrome P450 2C8 (Homo sapiens, UniProt P10632); test: Inhibition of CYP2C8 (unknown origin); assay type: ADME
[11] = Drug concentration in female CB17 SCID mouse plasma at 5 mg/kg, iv measured at 24 hrs by LC-MS/MS analysis; assay type: ADME, organism-based
[12] = Antitumor activity against human MOLM16 cells xenografted in mouse assessed as tumor regression at 25 mg/kg, iv administered twice daily; assay type: functional, MOLM-16
[13] = biological target: T1, Protein cereblon/Signal transducer and activator of transcription 3; test: PROTAC activity at his-SUMO-tagged STAT3 (127 to 688 residues)/CRBN in human PBMC cells assessed as reduction in STAT3 level at 0.1 to 4000 nM incubated for 20 hrs by Western blot analysis relative to control; assay type: cell-based; settings: dose 0.1-4000 nM
[14] = Drug concentration in female CB17 SCID mouse spleen at 5 mg/kg, iv measured at 3 hrs by LC-MS/MS analysis; assay type: ADME, organism-based; settings: read-out: Ct
[15] = biological target: T1, Protein cereblon/Signal transducer and activator of transcription 3; test: PROTAC activity at his-SUMO-tagged STAT3 (127 to 688 residues)/CRBN in human SU-DHL-1 cells assessed as reduction in STAT3 level at 0.1 to 4000 nM incubated for 20 hrs by Western blot analysis relative to control; assay type: cell-based; settings: dose 0.1-4000 nM
[16] = Drug concentration in female CB17 SCID mouse spleen at 5 mg/kg, iv measured at 72 hrs by LC-MS/MS analysis; assay type: ADME, organism-based; settings: read-out: Ct
[17] = Antiproliferative activity against human SUPM2 cells assessed as cell growth inhibition incubated for 4 days by celltiter-glo assay; assay type: functional, cell-based; settings: SUP-M2, 96 h
[18] = Antitumor activity against human MOLM16 cells xenografted in mouse assessed as tumor regression at 5 mg/kg, iv; assay type: functional, MOLM-16
[19] = tested on: SU-DHL-1; test: Antiproliferative activity against human SU-DHL-1 cells assessed as cell growth inhibition incubated for 4 days by celltiter-glo assay; assay type: functional, cell-based; settings: SU-DHL-1, 96 h
[20] = biological target: T2, Protein cereblon/Signal transducer and activator of transcription 2 (Homo sapiens) (UniProt Q96SW2+P52630); test: PROTAC activity at STAT2/CRBN in human SU-DHL-1 cells assessed as reduction in STAT2 level upto 40 uM incubated for 20 hrs by Western blot analysis; assay type: cell-based
[21] = biological target: T1, Protein cereblon/Signal transducer and activator of transcription 3; test: (§1) PROTAC activity at STAT3/CRBN in human Pfeiffer cells transfected with STAT3 K658R mutant assessed as reduction in STAT3 level incubated for 20 hrs by Western blot analysis; assay type: cell-based; settings: dose <= 40.0 µM
[22] = biological target: Protein cereblon/Signal transducer and activator of transcription 3 (Homo sapiens, UniProt P40763+Q96SW2, K658R); test: as §1; assay type: cell-based
[23] = Antitumor activity against human MOLM16 cells xenografted in mouse assessed as tumor regression at 10 to 20 mg/kg, iv; assay type: functional, MOLM-16; settings: dose 10-20 mg/kg
[24] = Stability in rat plasma assessed as half life; assay type: ADME, cell-free
[25] = tested on: MOLM16; test: PROTAC activity at STAT5/CRBN in human MOLM16 cells assessed as reduction in STAT5 level upto 40 uM incubated for 4 hrs by Western blot analysis; assay type: cell-based
[26] = Drug concentration in female CB17 SCID mouse tumor at 5 mg/kg, iv measured at 24 hrs by LC-MS/MS analysis; assay type: ADME, organism-based, Neoplasm; settings: read-out: Ct
[27] = biological target: T2, Protein cereblon/Signal transducer and activator of transcription 2 (Homo sapiens); test: PROTAC activity at STAT2/CRBN in human Pfeiffer cells transfected with STAT3 K658R mutant assessed as reduction in STAT2 level upto 40 uM incubated for 20 hrs by Western blot analysis; assay type: cell-based
[28] = biological target: Cytochrome P450 3A4 (Homo sapiens, UniProt P08684); test: Inhibition of CYP3A4 (unknown origin) using testosterone as substrate; assay type: ADME
[29] = Drug concentration in female CB17 SCID mouse plasma at 5 mg/kg, iv measured at 6 hrs by LC-MS/MS analysis; assay type: ADME, organism-based
[30] = Apparent volume of distribution in Sprague-Dawley rat at 5 mg/kg, iv; assay type: ADME, organism-based; settings: in vivo, read-out: Vz
[31] = Stability in human plasma assessed as half life; assay type: ADME, cell-free
[32] = Drug concentration in female CB17 SCID mouse tumor at 5 mg/kg, iv measured at 3 hrs by LC-MS/MS analysis; assay type: ADME, organism-based, Neoplasm; settings: read-out: Ct
[33] = biological target: T1, Protein cereblon/Signal transducer and activator of transcription 3; test: PROTAC activity at his-SUMO-tagged STAT3 (127 to 688 residues)/CRBN in human PBMC cells assessed as reduction in STAT3 level upto 40 uM incubated for 20 hrs by Western blot analysis relative to control; assay type: cell-based; set-up: scale not given: the % may be the effect or the level left
[34] = Drug concentration in female CB17 SCID mouse tumor at 5 mg/kg, iv measured at 48 hrs by LC-MS/MS analysis; assay type: ADME, organism-based, Neoplasm; settings: read-out: Ct
[35] = biological target: T3, Protein cereblon/Signal transducer and activator of transcription 3 (Mus musculus) (UniProt P42227+Q8C7D2); test: In-vivo PROTAC activity at STAT3/CRBN in female CB17 SCID mouse assessed as STAT3 depletion spleen at 5 mg/kg, iv measured at 1 hr by immunobloting analysis; assay type: functional, organism-based
[36] = Drug concentration in female CB17 SCID mouse spleen at 5 mg/kg, iv measured at 6 hrs by LC-MS/MS analysis; assay type: ADME, organism-based; settings: read-out: Ct
[37] = biological target: T3, Protein cereblon/Signal transducer and activator of transcription 3 (Mus musculus); test: In-vivo PROTAC activity at STAT3/CRBN in female CB17 SCID mouse assessed as reduction STAT3 level liver at 10 mg/kg, iv measured at 72 hrs by Western blot analysis; assay type: functional, organism-based; set-up: scale not given: the % may be the effect or the level left
[38] = Drug concentration in female CB17 SCID mouse liver at 5 mg/kg, iv measured at 3 hrs by LC-MS/MS analysis; assay type: ADME, organism-based; settings: read-out: Ct
[39] = Antitumor activity against human MOLM16 cells xenografted in mouse assessed as tumor regression at 25 mg/kg, iv; assay type: functional, MOLM-16

COC(=O)N1CC[C@H]2CC[C@@H](C(=O)N[C@@H](CCC(N)=O)C(=O)N[C@@H](Cc3ccc(F)c(F)c3)C(=O)N3CCC(CCC#Cc4cccc5c4CN(C4CCC(=O)NC4=O)C5=O)CC3)N2C(=O)[C@@H](NC(=O)c2cc3cc(C(F)(F)P(=O)(O)O)ccc3s2)C1 (some centres undefined)
remaining at 2 h [1]: 89%
pIC50 [2]: 6.44
concentration at 48 h [3]: 12400 ng/mL
Activity [4]: Active
remaining at 2 h [5]: 101%
Cmax [6]: 130000 ng/mL
Activity [7]: > 90%
Imax [8]: 50%
Vd [9]: 0.1 L/kg
pIC50 [10]: < 5.00
concentration at 24 h [11]: 17100 ng/mL
Activity [12]: 100%
Emax [13]: > 95%
concentration at 3 h [14]: 1920 ng/g
Emax [15]: > 95%
concentration at 72 h [16]: 568 ng/g
pIC50 [17]: 6.41
Activity [18]: 76%
pIC50 [19]: 6.37
Activity [20]: inactive
Activity [21]: Dose-dependent-effect
DC50 [22]: 2.5 nM
Activity [23]: 100%
t1/2 [24]: > 2 h
Activity [25]: inactive
concentration at 24 h [26]: 1800 ng/g
Activity [27]: inactive
IC50 [28]: > 10000 nM
concentration at 6 h [29]: 30300 ng/mL
Vd [30]: 0.12 L/kg
t1/2 [31]: > 2 h
concentration at 3 h [32]: 2830 ng/g
Activity [33]: > 95%
concentration at 48 h [34]: 1110 ng/g
Activity [35]: > 70%
concentration at 6 h [36]: 1950 ng/g
Activity [37]: > 90%
concentration at 3 h [38]: 3850 ng/g
Activity [39]: 100%
